# Laboratory results reported in patent US20180296542A1, “IMINOSUGARS FOR IMPROVING BONE MINERAL DENSITY IN BONE DISEASE” (Saint Louis University, priority 2015, published 2018).
# System: TNSALP-null (Akp2^−/−) mice (WT, Het, KO)
# Assay: X-Rays of femurs (Example 2)
# Format: in vivo
# Settings: 400 and 1200 mg/kg Miglustat, FIGS. 13A-13I
# Description: FIGS. 13A-13I are X-Rays of femurs from Wild-type mice administered PBS (WT-PBS; FIG. 13A), Heterozygous mice administered PBS (Het-PBS; FIG. 13B), Homozygous mice administered PBS (KO-PBS; FIG. 13C), Wild-type mice administered 400 mg/kg Miglustat (WT-400 mg/kg; FIG. 13D), Heterozygous mice administered 400 mg/kg Miglustat (Het-400 mg/kg; FIG. 13E), Homozygous mice administered 400 mg/kg Miglustat (KO-400 mg/kg; FIG. 13F), Wild-type mice administered 1200 mg/kg Miglustat (WT-1200 mg/kg; FIG. 13G), Heterozygous mice administered […] Miglustat (Het-1200 mg/kg; FIG. 13H), Homozygous mice administered […] Miglustat (KO-1200 mg/kg; FIG. 13I) showing increased bone at primary ossification centers (arrowheads).
# Full-body ventral and side-view x-rays were taken after euthanizing the mice. The left anatomical legs were dissected to obtain the femoral bones. Femurs were then frozen before being placed in 10% formalin the day prior to microCT scanning. […]
# Mice were obtained, bred and genotyped as described above. […] A total of 44 mice were analyzed (1 Akp2^−/− homozygous mouse was omitted in the PBS group). Mice were scanned using microCT and analyzed as described above. […]
structure (smiles),measurement,value
"CCCCN1C[C@H](O)[C@@H](O)[C@H](O)[C@H]1CO [Miglustat, (2R,3R,4R,5S)-1-butyl-2-(hydroxymethyl)piperidine-3,4,5-triol]",Bone at primary ossification centers (X-Rays of femurs),increased
